Tests used:
[1] = xn = mol fraction of the nth substance listed; details: 100 kPa, Liquid; for speed of sound: Frequency=3 MHz, Sing-around technique in a fixed-path interferometer; for mass density: Vibrating tube method
[2] = refractive index (Na D-line) (dimensionless); xn = mol fraction of the nth substance listed; details: 100 kPa, Liquid, Standard Abbe refractometry

O=C1CCCN1 [2-pyrrolidinone] + CCCC[n+]1ccn(C)c1.O=S(=O)([N-]S(=O)(=O)C(F)(F)F)C(F)(F)F
Details | mass density, [1] [kg/m3] | refractive index, [2] | speed of sound, [1] [m/s]
298.15 K, x2 = 0 | 1107.16 | 1.48591 | 1634.3
298.15 K, x2 = 0.1242 | 1204.09 | 1.46742 | 1491.9
298.15 K, x2 = 0.22 | 1253.58 | 1.45836 | 1431.2
298.15 K, x2 = 0.3191 | 1292.55 | 1.45142 | 1387.3
298.15 K, x2 = 0.4048 | 1320.08 | 1.44661 | 1357.6
298.15 K, x2 = 0.51 | 1348.24 | 1.44176 | 1327.5
298.15 K, x2 = 0.5945 | 1367.5 | 1.43844 | 1306.9
298.15 K, x2 = 0.7171 | 1391.3 | 1.4343 | 1280.2
298.15 K, x2 = 0.8383 | 1411.52 | 1.43075 | 1256.7
298.15 K, x2 = 0.9084 | 1421.66 | 1.42892 | 1244
303.15 K, x2 = 0 | 1103.07 | 1.48403 | 1617.7
303.15 K, x2 = 0.1242 | 1198.66 | 1.46576 | 1477.1
303.15 K, x2 = 0.22 | 1248.02 | 1.45679 | 1417
303.15 K, x2 = 0.3191 | 1287.03 | 1.44988 | 1373.5
303.15 K, x2 = 0.4048 | 1314.63 | 1.4451 | 1344.4
303.15 K, x2 = 0.51 | 1342.88 | 1.44028 | 1314.7
303.15 K, x2 = 0.5945 | 1362.18 | 1.43699 | 1294.3
303.15 K, x2 = 0.7171 | 1386.09 | 1.43286 | 1268.1
303.15 K, x2 = 0.8383 | 1406.4 | 1.42932 | 1244.9
303.15 K, x2 = 0.9084 | 1416.7 | 1.42747 | 1232.4
308.15 K, x2 = 0 | 1098.99 | 1.48218 | 1602.3
308.15 K, x2 = 0.1242 | 1193.23 | 1.46414 | 1462.9
308.15 K, x2 = 0.22 | 1242.46 | 1.45525 | 1403.4
308.15 K, x2 = 0.3191 | 1281.51 | 1.44835 | 1360.3
308.15 K, x2 = 0.4048 | 1309.18 | 1.44359 | 1331.3
308.15 K, x2 = 0.51 | 1337.52 | 1.43881 | 1302.1
308.15 K, x2 = 0.5945 | 1356.86 | 1.43554 | 1281.8
308.15 K, x2 = 0.7171 | 1380.88 | 1.43142 | 1255.9
308.15 K, x2 = 0.8383 | 1401.28 | 1.42789 | 1233.1
308.15 K, x2 = 0.9084 | 1411.74 | 1.426 | 1221
313.15 K, x2 = 0 | 1094.9 | 1.48033 | 1585.4
313.15 K, x2 = 0.1242 | 1187.79 | 1.46253 | 1448.4
313.15 K, x2 = 0.22 | 1236.9 | 1.4537 | 1389.4
313.15 K, x2 = 0.3191 | 1275.99 | 1.44683 | 1346.9
313.15 K, x2 = 0.4048 | 1303.73 | 1.44209 | 1318.2
313.15 K, x2 = 0.51 | 1332.16 | 1.43733 | 1289.4
313.15 K, x2 = 0.5945 | 1351.54 | 1.43407 | 1269.4
313.15 K, x2 = 0.7171 | 1375.67 | 1.42997 | 1244
313.15 K, x2 = 0.8383 | 1396.16 | 1.42645 | 1221.8
313.15 K, x2 = 0.9084 | 1406.78 | 1.42456 | 1209.8
318.15 K, x2 = 0 | 1090.82 | 1.47841 | 1569.4
318.15 K, x2 = 0.1242 | 1182.35 | 1.46087 | 1434.3
318.15 K, x2 = 0.22 | 1231.34 | 1.45212 | 1375.9
318.15 K, x2 = 0.3191 | 1270.47 | 1.44527 | 1333.8
318.15 K, x2 = 0.4048 | 1298.28 | 1.44057 | 1305.5
318.15 K, x2 = 0.51 | 1326.8 | 1.43584 | 1276.9
318.15 K, x2 = 0.5945 | 1346.22 | 1.43261 | 1257.2
318.15 K, x2 = 0.7171 | 1370.46 | 1.42853 | 1232.2
318.15 K, x2 = 0.8383 | 1391.04 | 1.42499 | 1210.4
318.15 K, x2 = 0.9084 | 1401.82 | 1.42312 | 1198.6
323.15 K, x2 = 0 | 1086.75 | 1.47649 | 1553.5
323.15 K, x2 = 0.1242 | 1176.91 | 1.4592 | 1420.2
323.15 K, x2 = 0.22 | 1225.78 | 1.45051 | 1362.6
323.15 K, x2 = 0.3191 | 1264.95 | 1.44369 | 1320.9
323.15 K, x2 = 0.4048 | 1292.83 | 1.43902 | 1292.9
323.15 K, x2 = 0.51 | 1321.44 | 1.43432 | 1264.6
323.15 K, x2 = 0.5945 | 1340.9 | 1.4311 | 1245.2
323.15 K, x2 = 0.7171 | 1365.25 | 1.42704 | 1220.5
323.15 K, x2 = 0.8383 | 1385.92 | 1.42352 | 1199.1
323.15 K, x2 = 0.9084 | 1396.86 | 1.42164 | 1187.6

From the NIST ThermoML archive (doi:10.1016/j.jct.2016.05.021)
